Values after ≈ are worked out from the molar mass of the structure shown. Values joined by “and” are separate entries in the source; they are usually repeats but may differ in a detail not shown here. Equal values may be shown once. Read-outs that look alike come from different tables or passages of the source. Marks after values point to notes of the source that are not given here.
Tests used:
[1] = system: influenza A virus A/HK/1/68 (subtype H3N2); assay: Influenza A virus-induced CPE inhibition assay in MDCK cells (A/HK/1/68); format: cell-based; details: H3N2, 48 h, maximum 100 µM, n.a. = not active, read-out: IC50 (IAV) HK/1/68
[2] = in vitro; details: dog
[3] = system: neuraminidase of influenza A virus (IAV NA); assay: Human erythrocyte-based (hemagglutination-based) viral neuraminidase inhibition assay; format: biochemical, influenza A virus A/Jena/8178/09; details: human erythrocytes, 37 °C for 24 h, maximum 100 µM for test compounds
[4] = molecular target: T1, neuraminidase NanA of S. pneumoniae strain DSM20566 (Streptococcus pneumoniae, UniProt P62575); assay: Lectin-based hemagglutination NA inhibition assay with pneumococcal neuraminidase; format: biochemical; details: ethanol-precipitated proteins of S. pneumoniae DSM20566, lectin-based hemagglutination assay
[5] = system: influenza A virus A/Jena/8178/09 (subtype A(H1N1)pdm09); assay: Influenza A virus-induced CPE inhibition assay in MDCK cells (A/Jena/8178/09); format: cell-based; details: A(H1N1)pdm09, 48 h, maximum 100 µM, n.a. = not active, read-out: IC50 (IAV) Jena/8178
[6] = molecular target: viral hemagglutinin (Influenza A virus, UniProt C3W5S1); assay: Human erythrocyte-based assay, inhibition of viral hemagglutinin-induced hemagglutination at 4 °C; format: biochemical; details: human erythrocytes, influenza A virus A/Jena/8178/09
[7] = system: S. pneumoniae DSM20566; assay: Planktonic growth inhibition, microtiter broth microdilution assay; format: cell-based, Streptococcus pneumoniae; details: read-out: IC50 Planktonic growth
[8] = system: S. pneumoniae DSM20566; assay: Biofilm formation inhibition assay (crystal violet); format: cell-based, Streptococcus pneumoniae; details: read-out: IC50 Biofilm formation
[9] = system: MDCK cells; details: read-out: CC50 (MDCK), 72 h incubation, maximum 100 µM
[10] = molecular target: T1, neuraminidase NanA of S. pneumoniae strain DSM20566; details: Published; cited from earlier work
[11] = Streptococcus pneumoniae, DSM20566, 18 h
[12] = Streptococcus pneumoniae, S. pneumoniae DSM20566, 24 h, crystal violet, maximum 50 μM

T1 sequence (P62575 54-1035): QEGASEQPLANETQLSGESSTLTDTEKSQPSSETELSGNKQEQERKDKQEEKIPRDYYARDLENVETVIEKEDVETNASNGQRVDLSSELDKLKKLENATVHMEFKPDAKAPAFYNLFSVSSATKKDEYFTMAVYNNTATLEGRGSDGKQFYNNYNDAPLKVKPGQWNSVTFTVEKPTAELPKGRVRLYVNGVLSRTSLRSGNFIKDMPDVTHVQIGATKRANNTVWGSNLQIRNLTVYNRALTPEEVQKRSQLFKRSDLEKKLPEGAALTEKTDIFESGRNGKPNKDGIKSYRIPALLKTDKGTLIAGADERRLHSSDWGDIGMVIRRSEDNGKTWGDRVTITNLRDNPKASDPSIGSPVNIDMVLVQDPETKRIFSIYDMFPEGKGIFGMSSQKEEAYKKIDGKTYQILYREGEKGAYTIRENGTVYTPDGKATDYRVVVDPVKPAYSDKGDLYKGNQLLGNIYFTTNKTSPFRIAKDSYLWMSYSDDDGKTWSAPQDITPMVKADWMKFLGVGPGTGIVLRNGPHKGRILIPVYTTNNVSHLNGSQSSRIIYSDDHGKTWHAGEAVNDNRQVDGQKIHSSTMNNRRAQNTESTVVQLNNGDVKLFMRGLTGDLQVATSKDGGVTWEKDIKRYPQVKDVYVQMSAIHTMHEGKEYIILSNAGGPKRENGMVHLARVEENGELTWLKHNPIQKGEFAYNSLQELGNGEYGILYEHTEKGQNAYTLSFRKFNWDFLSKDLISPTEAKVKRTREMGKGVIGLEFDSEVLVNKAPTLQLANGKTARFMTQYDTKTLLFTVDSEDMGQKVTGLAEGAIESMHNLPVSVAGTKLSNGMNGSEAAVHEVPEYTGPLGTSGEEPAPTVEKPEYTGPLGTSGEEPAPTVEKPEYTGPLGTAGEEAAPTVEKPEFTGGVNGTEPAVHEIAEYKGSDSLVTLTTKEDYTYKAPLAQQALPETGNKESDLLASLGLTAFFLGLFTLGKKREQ
Sequence of viral hemagglutinin (C3W5S1 18-344 limits assumed): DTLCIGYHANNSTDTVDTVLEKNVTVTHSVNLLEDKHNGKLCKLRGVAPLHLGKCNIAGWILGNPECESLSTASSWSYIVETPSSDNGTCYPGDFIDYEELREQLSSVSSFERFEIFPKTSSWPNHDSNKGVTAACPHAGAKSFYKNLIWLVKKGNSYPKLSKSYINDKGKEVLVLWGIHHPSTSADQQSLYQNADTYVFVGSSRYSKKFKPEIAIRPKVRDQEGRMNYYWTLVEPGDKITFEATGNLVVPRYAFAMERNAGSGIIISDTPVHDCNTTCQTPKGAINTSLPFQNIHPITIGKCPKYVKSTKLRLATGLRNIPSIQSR
Sequence of viral hemagglutinin (C3W5S1 345-566 limits assumed): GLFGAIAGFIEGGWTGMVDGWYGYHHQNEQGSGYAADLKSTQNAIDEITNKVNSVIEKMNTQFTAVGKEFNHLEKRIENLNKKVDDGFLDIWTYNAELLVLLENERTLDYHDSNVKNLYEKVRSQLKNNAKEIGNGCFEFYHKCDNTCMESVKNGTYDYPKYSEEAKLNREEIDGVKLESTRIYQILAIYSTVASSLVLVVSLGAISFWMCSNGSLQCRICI

Molecule	CC50 at 72 h [2] [µM]	MIC IAV NA (minimum neuraminidase inhibitory concentration) [3]	MIC S.p. NanA (minimum neuraminidase inhibitory concentration) [4]	melting point [°C]	IC50 ([5]; Influenza A virus) [µM]	also measured
CCOC(=O)c1c(C)[nH]c2c1cc(O)c1c2c(-c2cc(Cl)cc(Cl)c2)nn1-c1ccccc1 [Compound 6k]	> 100	–	–	–	–	IC50 ([1]; Influenza A virus): 30.2 µM
CCOC(=O)c1c(C)n(C)c2c1cc(O)c1c2c(-c2ccc([N+](=O)[O-])cc2)nn1-c1ccccc1 [Compound 6f, 5-Hydroxy-3-ethoxycarbonyl-1,2-dimethyl-8-(4-nitrophenyl)-6-phenyl-pyrrolo[2,3-e]indazole]	> 100	77.20 µM (≈ 36.3 µg/mL)	31.60 µM (≈ 14.9 µg/mL)	258 to 261	–	IC50 ([1]; Influenza A virus): 42.5 µM
CCOC(=O)c1c(C)[nH]c2c1cc(OC(C)=O)c1c2c(-c2ccc(N)cc2)nn1-c1ccccc1 [Compound 13]	> 100	14.20 µM (≈ 6.65 µg/mL)	–	–	14.1	IC50 ([1]; Influenza A virus): 9.39 µM; Inhibition of hemagglutination (concentration) [6]: 31.6 µM
CCOC(=O)c1c(C)n(Cc2ccccc2)c2c1cc(O)c1c2c(-c2ccc([N+](=O)[O-])cc2)nn1-c1ccccc1 [Compound 6g, 1-Benzyl-5-hydroxy-3-ethoxycarbonyl-2-methyl-8-(4-nitrophenyl)-6-phenyl-pyrrolo[2,3-e]indazole]	–	–	–	226 to 228	–	CC50 [2]: > 100 µM
CCOC(=O)c1c(C)n(CC)c2c1cc(OCC)c1c2c(-c2ccc([N+](=O)[O-])cc2)nn1-c1ccccc1 [Compound 11b]	–	77.20 µM (≈ 39.6 µg/mL)	54.40 µM (≈ 27.9 µg/mL)	175 to 177	25.5	CC50 [2]: > 100 µM
CCOC(=O)c1c(C)[nH]c2c1cc(OC(C)=O)c1c2c(-c2ccc([N+](=O)[O-])cc2)nn1-c1ccccc1 [Compound 11e]	> 100	17.20 µM (≈ 8.57 µg/mL)	10.0 µM and 10.00 µM	–	16.7	–
5-Hydroxy-3-ethoxycarbonyl-2-methyl-6-phenyl-8-[4-(trifluoromethyl)phenyl]-pyrrolo[2,3-e]indazole [Compound 6h]	–	24.40 µM	10.0 µM and 10.00 µM	–	–	IC50 [1]: 30.5 µM; IC50 [5]: 24.8 µM; IC50 ([7]; S. pneumoniae DSM20566, 18 h, OD 620 nm, maximum 50 μM): 50 µM; IC50 ([8]; S. pneumoniae DSM20566, 24 h, crystal violet, maximum 50 μM): 40.1 µM; CC50 [9]: > 100 µM
CCOC(=O)c1c(C)n(Cc2ccccc2)c2c1cc(O)c1c2c(-c2ccccc2)nn1-c1ccccc1 [Compound 6c, 1-Benzyl-5-hydroxy-3-ethoxycarbonyl-2-methyl-6,8-diphenyl-pyrrolo[2,3-e]indazole]	–	77.20 µM (≈ 38.7 µg/mL)	24.40 µM (≈ 12.2 µg/mL)	256 to 258	71.1	IC50 [7, 11]: 8.9 µM; IC50 ([8]; Streptococcus pneumoniae, DSM20566, 24 h): 0.93 µM; CC50 [2]: > 100 µM
CCOC(=O)c1c(C)[nH]c2c1cc(O)c1c2c(-c2ccc(-n3cccc3)cc2)nn1-c1ccccc1 [Compound 14]	> 100	24.40 µM (≈ 11.6 µg/mL)	10.0 µM and 10.00 µM	–	11.4	IC50 [8, 12]: 28 µM
CCOC(=O)c1c(C)n(C)c2c1cc(O)c1c2c(-c2ccccc2)nn1-c1ccccc1 [Compound 6b, 5-Hydroxy-3-ethoxycarbonyl-1,2-dimethyl-6,8-diphenyl-pyrrolo[2,3-e]indazole]	> 100	31.60 µM (≈ 13.4 µg/mL)	31.60 µM (≈ 13.4 µg/mL)	270 to 272	31.6	–
CCOC(=O)c1c(C)[nH]c2c1cc(O)c1c2c(-c2ccc(CC)cc2)nn1-c1ccccc1 [Compound 6j]	> 100	–	–	–	–	IC50 ([1]; Influenza A virus): 52.2 µM
CCOC(=O)c1c(CN2CCCCC2)n(C)c2c1cc(OC(C)=O)c1c2c(-c2ccccc2)nn1-c1ccccc1 [Compound 9a]	> 100	does not inhibit	54.40 µM (≈ 30 µg/mL)	203 to 205	–	–
5-Hydroxy-3-ethoxycarbonyl-2-methyl-8-(4-nitrophenyl)-6-phenyl-pyrrolo[2,3-e]indazole [Compound 6e]	–	54.40 µM	14.32 µM	–	–	IC50 [1]: 16.4 µM; IC50 [5]: 19.5 µM; CC50 [9]: > 100 µM
CCOC(=O)c1c(CN(CC)CC)n(C)c2c1cc(OC(C)=O)c1c2c(-c2ccccc2)nn1-c1ccccc1 [Compound 9b]	> 100	77.20 µM (≈ 41.6 µg/mL)	24.40 µM (≈ 13.1 µg/mL)	–	53.2	–
CCOC(=O)c1c(C)n(C)c2c1cc(OC(C)=O)c1c2c(-c2ccccc2)nn1-c1ccccc1 [Compound 7a]	> 100	100.00 µM (≈ 46.8 µg/mL)	31.60 µM (≈ 14.8 µg/mL)	214 to 216	83.7	–
CCOC(=O)c1c(C)n(-c2ccc(OC)cc2)c2c1cc(O)c1c2c(-c2ccccc2)nn1-c1ccccc1 [Compound 6d, 5-Hydroxy-3-ethoxycarbonyl-1-(4-methoxyphenyl)-2-methyl-6,8-diphenyl-pyrrolo[2,3-e]indazole]	> 100	54.40 µM (≈ 28.2 µg/mL)	17.20 µM (≈ 8.9 µg/mL)	277 to 279	38.6	–
CCOC(=O)c1c(C)[nH]c2c1cc(O)c1c2c(-c2ccc(N)cc2)nn1-c1ccccc1 [Compound 12]	> 100	21.40 µM (≈ 9.13 µg/mL)	10.0 µM and 10.00 µM	–	15.7	IC50 ([1]; Influenza A virus): 8.54 µM
CCCCCOc1cc2c(C(=O)OCC)c(C)[nH]c2c2c(-c3ccc([N+](=O)[O-])cc3)nn(-c3ccccc3)c12 [Compound 11d]	> 100	–	–	–	26.5	–
CCOC(=O)c1c(C)[nH]c2c1cc(OCC)c1c2c(-c2ccc([N+](=O)[O-])cc2)nn1-c1ccccc1 [Compound 11c]	> 100	47.20 µM (≈ 22.9 µg/mL)	54.40 µM (≈ 26.4 µg/mL)	–	30.3	–
CCOC(=O)C1=C[C@@H](OC(CC)CC)[C@H](NC(C)=O)[C@@H](N)C1 [Oseltamivir, oseltamivir, reference compound]	–	1.97 µM (≈ 0.615 µg/mL)	–	–	–	IC50 [1]: 0.004 µM; IC50 [5]: 0.14 µM; MIC S.p. NanA (minimum neuraminidase inhibitory concentration) [10]: 2.08 ^a μM
CCOC(=O)c1c(C)n(C)c2c1cc(OC)c1c2c(-c2ccc([N+](=O)[O-])cc2)nn1-c1ccccc1 [Compound 11a]	> 100	24.40 µM (≈ 11.8 µg/mL)	31.60 µM (≈ 15.3 µg/mL)	–	21.5	–
CCOC(=O)c1c(C)n(Cc2ccccc2)c2c1cc(OC(C)=O)c1c2c(-c2ccccc2)nn1-c1ccccc1 [Compound 7b]	–	100.00 µM (≈ 54.4 µg/mL)	31.60 µM (≈ 17.2 µg/mL)	–	38.7	CC50 [2]: > 100 µM
CCOC(=O)c1c(CN2CCCCC2)n(C)c2c1cc(O)c1c2c(-c2ccccc2)nn1-c1ccccc1 [Compound 10a]	> 100	54.40 µM (≈ 27.7 µg/mL)	31.60 µM (≈ 16.1 µg/mL)	285	86.7	IC50 ([7]; Streptococcus pneumoniae, S. pneumoniae DSM20566, 18 h, OD 620 nm, maximum 50 μM): 6.88 µM; IC50 [8, 12]: 3.31 µM
5-hydroxy-3-ethoxycarbonyl-2-methyl-6,8-diphenyl-pyrrolo[2,3-e]indazole [Compound 6a]	–	70.00 µM	31.60 µM	–	–	CC50 [9]: > 100 µM
CCOC(=O)c1c(CN2CCOCC2)n(Cc2ccccc2)c2c1cc(O)c1c2c(-c2ccccc2)nn1-c1ccccc1 [Compound 10b]	–	54.40 µM (≈ 31.9 µg/mL)	10.0 µM and 10.00 µM	145 to 146	33.2	IC50 [7, 11]: 7.57 µM; CC50 [2]: > 100 µM
CC(=O)N[C@H]1[C@H]([C@H](O)[C@H](O)CO)OC(C(=O)O)=C[C@@H]1N=C(N)N [Zanamivir, zanamivir, reference compound]	–	3.16 µM (≈ 1.05 µg/mL)	–	–	0.11	–

— PMC10282731, “Pyrrolo[2,3-e]indazole as a novel chemotype for both influenza A virus and pneumococcal neuraminidase inhibitors” (RSC Advances, 2023)
